Data as given in ChEMBL document CHEMBL1201862, “PubChem BioAssay data set” (2004).
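Growth conditions: 96-well plates. Treatment: test compound, 48 hours, 5 concentrations. Analysis: linear interpolation between bracketing concentrations; unreached endpoints set to highest concentration. Here, GI50 denotes the concentration required for 50% inhibition of growth.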 The source made the active and inactive calls. Rule as the data show it: active = GI50 up to about 1.1 µM and inactive = higher.

Assays:
Experiment in all cases: inhibition of tumour cell growth, NCI panel, 48 h
[1] = system: EKVX
[2] = system: HCC 2998
[3] = system: SF-268
[4] = system: MOLT-4
[5] = system: COLO 205
[6] = system: NCI/ADR-RES
[7] = system: HCT-116
[8] = system: LOX IMVI
[9] = system: RPMI-8226
[10] = system: OVCAR-3
[11] = system: SF-539
[12] = system: SK-MEL-5
[13] = system: OVCAR-8
[14] = system: KM12
[15] = system: SK-OV-3
[16] = system: RXF 393
[17] = system: SR
[18] = system: ACHN

Measured: GI50

O=C(O)CCCCCCC[C@@H]1S[C@H]1CCCCCCO
inactive: [1] > 100 µM | [2] > 100 µM | [3] > 100 µM | [4] > 100 µM | [5] > 100 µM | [6] > 100 µM | [7] > 100 µM | [8] > 100 µM | [9] > 100 µM | [10] > 100 µM | [11] > 100 µM | [12] > 100 µM | [13] > 100 µM | [14] > 100 µM | [15] > 100 µM | [16] > 100 µM

CC(=O)Oc1c(OC(C)=O)c(-c2ccc(O)c(O)c2)c(O)c(O)c1-c1ccc(O)cc1
inactive: [1] > 100 µM | [2] > 100 µM | [3] > 100 µM | [4] > 100 µM | [5] > 100 µM | [6] > 100 µM | [7] > 100 µM | [8] 29.9 µM | [9] > 100 µM | [10] > 100 µM | [11] > 100 µM | [12] 19.7 µM | [13] 46.2 µM | [14] > 100 µM | [15] > 100 µM

COC(=O)/C(=C1\OC(=O)C(c2ccc(Cl)cc2)=C1O)c1ccc(Cl)cc1
inactive: [1] 23.7 µM | [2] 28.7 µM | [3] 22.3 µM | [4] 22.5 µM | [5] 18.9 µM | [7] 19.8 µM | [8] 21.3 µM | [9] 19.6 µM | [10] 27.8 µM | [11] 23.4 µM | [17] 25.8 µM | [13] 31.7 µM | [14] 23.8 µM | [18] 23.2 µM | [15] 28.8 µM | [16] 21.5 µM

CC(C)CC/N=c1/cc2n(-c3ccc(Cl)cc3)c3ccccc3nc-2cc1Nc1ccc(Cl)cc1
inactive: [1] 6.12 µM | [2] 3.86 µM | [3] 27.5 µM | [4] 2.16 µM | [5] 1.95 µM | [6] 10.1 µM | [7] 3.77 µM | [8] 2.89 µM | [9] 2.22 µM | [10] 2 µM | [11] 16 µM | [12] 12.7 µM | [13] 7.78 µM | [14] 4.3 µM | [15] 18.1 µM | [16] 3.37 µM

COC(=O)C(C(=O)C(=O)Nc1c(Cl)cc([N+](=O)[O-])cc1Cl)c1csc(-n2nc(C3=CCCCC3)cc2-c2ccccc2)n1 (centres undefined)
inactive: [1] 8.47 µM | [2] > 100 µM | [3] 71.8 µM | [4] 52.2 µM | [5] 32.1 µM | [7] 42.5 µM | [8] 43.9 µM | [9] 27.9 µM | [10] 59 µM | [11] 34.8 µM | [17] 22.5 µM | [13] 61.7 µM | [14] 45 µM | [18] 35.5 µM | [15] 34.3 µM | [16] 63.7 µM

COC(=O)C1CCC2(CC1)NC(=O)NC2=O (centres undefined)
inactive: [1] > 100 µM | [2] > 100 µM | [3] > 100 µM | [4] > 100 µM | [5] > 100 µM | [7] > 100 µM | [8] > 100 µM | [9] > 100 µM | [10] > 100 µM | [11] > 100 µM | [17] > 100 µM | [12] > 100 µM | [13] > 100 µM | [14] > 100 µM | [18] > 100 µM | [15] > 100 µM | [16] > 100 µM

N#Cc1cnsc1
inactive: [1] > 100 µM | [2] > 100 µM | [3] > 100 µM | [4] > 100 µM | [5] > 100 µM | [7] > 100 µM | [8] > 100 µM | [9] > 100 µM | [10] > 100 µM | [11] > 100 µM | [17] > 100 µM | [12] > 100 µM | [13] > 100 µM | [14] > 100 µM | [18] > 100 µM | [15] > 100 µM | [16] > 100 µM

COC1=CC(=O)[C@]2(C)[C@H](C1=O)C(C)[C@H]2c1ccccc1 (some centres undefined)
inactive: [1] > 100 µM | [2] > 100 µM | [3] > 100 µM | [4] > 100 µM | [5] > 100 µM | [8] > 100 µM | [9] > 100 µM | [10] > 100 µM | [11] > 100 µM | [17] > 100 µM | [12] > 100 µM | [13] > 100 µM | [14] > 100 µM | [18] > 100 µM | [15] > 100 µM | [16] > 100 µM

COc1c2ccoc2c(S(=O)(=O)Nc2ccc(Cl)cc2)c2oc(C)cc(=O)c12
inactive: [1] > 100 µM | [2] > 100 µM | [3] 52.6 µM | [4] > 100 µM | [5] > 100 µM | [6] > 100 µM | [7] 36 µM | [8] > 100 µM | [9] > 100 µM | [10] > 100 µM | [11] 31.3 µM | [12] > 79.8 µM | [13] 58.3 µM | [14] > 100 µM | [15] > 100 µM | [16] 25.1 µM

COc1cccc(NC(=O)C(=O)C(C(=O)c2ccccc2F)C2OC(=O)c3ccccc32)c1 (centres undefined)
inactive: [1] 41.8 µM | [2] 17.9 µM | [3] 30.5 µM | [4] 25.4 µM | [5] 14.6 µM | [7] 20 µM | [8] 29.9 µM | [9] 21.6 µM | [11] 21.3 µM | [17] 16.6 µM | [12] 52 µM | [13] 21.8 µM | [14] 45.8 µM | [18] 45.1 µM | [15] 35.2 µM | [16] 28.1 µM

COc1cc(-c2cc(O)c3ccccc3n2)cc(OC)c1OC
inactive: [1] > 75 µM | [2] > 75 µM | [3] > 75 µM | [4] > 75 µM | [5] > 75 µM | [7] > 75 µM | [8] > 75 µM | [9] > 75 µM | [10] > 75 µM | [11] > 75 µM | [17] > 75 µM | [13] > 75 µM | [14] > 75 µM | [18] > 75 µM | [15] > 75 µM | [16] > 75 µM

COC(=O)/C=C\C1C(C(=O)OC)C2(C(=O)OC)CCC1(C(=O)OC)N2 (centres undefined)
inactive: [1] 27.2 µM | [2] 17.3 µM | [3] 23.8 µM | [4] 3.77 µM | [5] 4.19 µM | [7] 13.8 µM | [8] 13.4 µM | [9] 5.08 µM | [10] 15.3 µM | [11] 17.8 µM | [17] 5.37 µM | [12] 19.3 µM | [13] 7.19 µM | [14] 20.5 µM | [18] 9.33 µM | [15] 17.9 µM | [16] 7.21 µM
